Assay results reported in patent US6001799A, “Method of treating hepatitis C in non-responders to interferon treatment” (SciClone Pharmaceuticals, Inc., priority 1993, dated 1999).
Where no end group is shown, it is not given here.

What was measured:
HCV-related diseases = conditions: in vivo; cited from earlier work
[1] = test system: nonsmall cell lung cancer; conditions: both THNα1 treatment groups; cited from earlier work
[2] = test system: response to influenza vaccine; conditions: cited from earlier work
Hepatitis C = assay: Treatment of Hepatitis C patients with Thymosin α-1 during α-IFN administration (Example 6); assay type: in vivo, human; conditions: after 6 months
Protocol: The course of the disease and its response to drug treatments may be followed by clinical examination and laboratory findings.
Efficacy of Thymosin α-1 for treatment of Hepatitis C was shown in two Hepatitis C patients who were previous non-responders to α-interferon. These two patients were treated with Thymosin α-1 by subcutaneous injection of 1 mg thereof twice weekly, during administration three times weekly of 2 million units of α-IFN. […] In three additional Hepatitis C patients treated as above, serum ALT levels were reduced 50% after 6 months.

hepatitis B virus (HBV) = conditions: treated for a year, cited from earlier work
[3] = test system: Woodchuck Hepatitis Virus; conditions: infected woodchuck; cited from earlier work

Row | Molecule | effectiveness in halting or slowing progression of HCV-related diseases (HCV-related diseases) | relapse-free survival and overall survival versus placebo group [1] | antibody to influenza ([2]; s.c. twice weekly from vaccination, six weeks post-vaccine) | toxicity in drug recipients ([2]; s.c. twice weekly) | reduction of serum ALT (threshold not achieved) (Hepatitis C; six additional Hepatitis C patients, same regimen with α-IFN) [%] | response to treatment (serum ALT levels reduced to normal) (Hepatitis C; six other Hepatitis C patients, same regimen with α-IFN) | serum ALT levels reduced (Hepatitis C; three additional Hepatitis C patients, same regimen with α-IFN) [%] | reduction of serum alanine transaminase (ALT) (Hepatitis C; two patients, previous non-responders to α-interferon, 1 mg s.c. twice weekly during 2 million units α-IFN three times weekly) [%] | serum ALT (hepatitis B virus (HBV); THNα1 5 patients, TF-5 2 patients) | patients initially positive for HBSAg who cleared this antigen (hepatitis B virus (HBV); THNα1 and TF-5 patients pooled) | patients with reduced levels of serum HBV DNA (hepatitis B virus (HBV); THNα1 and TF-5 patients pooled) | clinical parameters [3] | viral DNA replication [3]
1 | Nc1nc2c(ncn2COCCO)c(=O)[nH]1 [acyclovir] | ineffective | – | – | – | – | – | – | – | – | – | – | – | –
2 | Thymosin α-1 (SDAAVDTSSEITTKDLKEKKEVVEEAEN; ends and bridges not checked; UniProt P06454 2-29, looked up) | – | greater | higher levels of antibody to influenza than controls | No clinical or biochemical toxicity | < 50 | complete response | 50 | 50 | marked decrease | 5 of 6 | 6 of the 7 | no improvement | suppressed viral DNA replication
